This passage reports relative viability results from the supplement of paper PMC10307832.

Compound in the test “QS11 + Trametinib”: C1CC2=C(C1)C=C(C=C2)OC3=NC(=C4C(=N3)N(C=N4)CC5=CC=C(C=C5)C6=CC=CC=C6)N[C@@H](CC7=CC=CC=C7)CO [QS11] + CC(=O)Nc1cccc(-n2c(=O)n(C3CC3)c(=O)c3c(Nc4ccc(I)cc4F)n(C)c(=O)c(C)c32)c1 [Trametinib] (partner 0.02 µM)
The experiment in a line: relative viability (nuclei count vs DMSO), 5 days (fraction); higher = more cells survive. A digest of the protocol: (§1)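 Relative viability equals treated-well nuclei counts divided by vehicle-well nuclei counts. Counts came from 4× images of lung cancer cell lines grown in 1536-well plates for 5 days after pin-tool dosing on the day after seeding. Dosing used one drug alone or a fixed anchor-drug dose plus five library-drug doses (not always all listed) in √10 steps, and values are medians of duplicate plates.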

Compound in the test “QS11 + Foretinib”: C1CC2=C(C1)C=C(C=C2)OC3=NC(=C4C(=N3)N(C=N4)CC5=CC=C(C=C5)C6=CC=CC=C6)N[C@@H](CC7=CC=CC=C7)CO [QS11] + COc1cc2c(Oc3ccc(NC(=O)C4(C(=O)Nc5ccc(F)cc5)CC4)cc3F)ccnc2cc1OCCCN1CCOCC1 [Foretinib] (partner 0.25 µM)
The test is described as above. Put shortly:
as §1

Turning to LCLC-97TM1, the relative viability was 0.213 with QS11 + Trametinib (first compound 0.253 µM); 0.223 with QS11 + Trametinib (first compound 2.53 µM); 0.277 with QS11 + Trametinib (first compound 8 µM); 0.957 with QS11 + Foretinib (first compound 0.08 µM); 0.949 in the test with QS11 + Foretinib (first compound 0.253 µM); 0.934 with QS11 + Foretinib (first compound 2.53 µM). Also, the relative viability in the test with QS11 + Foretinib (first compound 8 µM) is 0.931.
